Data reported in patent publication US10058622B2, “PH-sensitive peptides and their nanoparticles for drug delivery” (THE TRUSTEES OF THE UNIVERSITY OF PENNSYLVANIA, priority 2013, dated 2018).
Where two headings read alike, the source gives them in different places.

Experiments:
[1] = system: HCC1806 tumor (triple-negative breast cancer); assay: Tumor growth in HCC1806 tumor inoculated mice; format: in vivo; details: 100 mg LND/kg in tris-glycine buffer, intraperitoneal injection
[2] = Solubility of hydrophobic drugs in water versus concentration in nanoparticles; format: physicochemical; details: nanoparticles of Example 9 / Example 10
[3] = cited from earlier work
[4] = Solubility of peptides at pH 7.4 and 6.5 (Example 13); format: physicochemical
Description: Five pH sensitive peptides of the following sequences, […] (SEQ ID NO: 17), […] (SEQ ID NO: 18), […] (SEQ ID NO: 19), […] (SEQ ID NO: 20) and […] (SEQ ID NO: 8) were similarly synthesized by the method described in Example (1). Peptides […] (SEQ ID NO: 17) and […] (SEQ ID NO: 18) were soluble at both pH 7.4 and 6.5. Peptides […] (SEQ ID NO: 19) and […] (SEQ ID NO: 20) were insoluble at both pH 7.4 and 6.5, with […] (SEQ ID NO: 20) forming nanoparticles of about 80 nm. Peptide […] (SEQ ID NO: 8) was insoluble above about pH 6.7 forming nanoparticles of about 50 nm and soluble below about pH6.7; i.e., it undergoes a pH-induced transition at about pH6.7. Therefore, the pH ranges of the hydrophobic/hydrophilic transition and the corresponding soluble/insoluble transition of peptides and their nanoparticles may be adjusted by changing one or more features of the peptide, e.g., sequence and length, and the hydrophobic block and the functional block to which the peptide is conjugated.

[5] = system: SKOV3 cells; assay: Cytotoxicity by lactic dehydrogenase (LDH) assay; format: cell-based, human; details: control set as zero
Description: (§1) FIGS. 4A and 4B show lack of cytotoxicity of a pH sensitive peptide solution for SKOV3 cells.
(§2) Cytotoxicity, i.e., the effect of peptide on tumor cell viability, was determined using lactic dehydrogenase (LDH) assay. Cells (SKOV3 cells, a human carcinogenic cell line from ovarian cancer) were plated in 96-well plates (10,000 per well for SKOV3) and allowed to adhere overnight at 37° C. in a humidified atmosphere of 5% CO2. […] The medium was next removed, the LDH assay lysis solution was added, and the wells were kept at 37° C. for another 45 minutes. Finally, the LDH assay mixture was added and the wells were held at room temperature for still another 20-30 minutes before the absorbance was spectrophotometrically measured at a wavelength of 490 nm on a SpectraMax (Molecular Devices). […] This was confirmed by the spectrophotometric intensity of dead cells, shown in the lower panel, which was near zero, meaning it is indistinguishable from that of the control. Therefore, the peptide itself is non-toxic and biocompatible.

[6] = Cytotoxicity by lactic dehydrogenase (LDH) assay; format: cell-based, human; details: human, SKOV3 cells, read-out: cell viability
Description: as §1, §2

[7] = Solubility of peptide nanoparticles as a function of pH (Example 1, FIG. 1B); format: physicochemical; details: phosphate buffer solution
Description: A pH sensitive peptide (Ac-[…]-NH2) (SEQ ID NO: 9) was synthesized by the solid phase method. Amino acids blocked by the fluorinylmethyloxycarbonyl (FMOC) group were utilized to couple to a Rink amide resin. Piperideine, N-methylmorpholine (NMM), and hexafluorophosphate (HBTU) in dimethylformamide were used to remove the FMOC group and activate amino acids. The peptide was acetylated with acetic anhydride at the N-terminus and cleaved with trifluoroacetic acid/triisopropylsilane/water (95%/2.5%/2.5%). […] Such peptide spontaneously forms nanoparticles at pH 7.4. The solubility of nanoparticles was measured as a function of pH. […] Therefore, there is a sharp transition spanning over a pH interval of only 0.1. The increasing solubility at lower pH is believed to be due to the increasing protonation of the histidine group.

O=C(O)c1nn(Cc2ccc(Cl)cc2Cl)c2ccccc12 [LND, lonidamine]
duration of tumor growth delay effect compared to control [1]: about 10 days
concentration of drug in pH-sensitive peptide nanoparticle preparation [2]: 1 mg/ml
solubility in water [3]: about 17 μg/ml

Ac-GFFFHGFFFH-NH2
solubility of peptide ([4]; pH 6.5): insoluble
solubility of peptide ([4]; pH 7.4): insoluble

Ac-HFFHGHFFHGHFFHGKK-NH2
spectrophotometric intensity of dead cells (LDH release) [5]: near zero
viability at 3 h ([6]; pH 6.8, 3 hours with peptide then 24 hours): ~100%
viability at 3 h ([6]; pH 7.4, 3 hours with peptide then 24 hours): ~100%
solubility of peptide and nanoparticle ([7]; above pH 7.2): completely insoluble
solubility of peptide and nanoparticle ([7]; at pH 7.0): mostly insoluble
solubility of peptide and nanoparticle ([7]; below pH 6.7): completely soluble
solubility of peptide and nanoparticle ([7]; below pH 6.9): mostly soluble
pH interval spanned by the sharp solubility transition [7]: 0.1
pH of sudden fall indicating dissolution of peptide construct from nanoparticle ([7]; FIG. 1B): 6.9

Ac-GHFFHGFFFH-NH2
solubility of peptide ([4]; pH 6.5): insoluble
solubility of peptide ([4]; pH 7.4): insoluble

Ac-KGGHFFHGHFFHGK-NH2
solubility of peptide ([4]; pH 6.5): soluble
solubility of peptide ([4]; pH 7.4): soluble

CC(=O)O[C@H]1C(=O)[C@@]2(C)[C@H]([C@H](OC(=O)c3ccccc3)[C@]3(O)C[C@H](OC(=O)[C@H](O)[C@@H](NC(=O)c4ccccc4)c4ccccc4)C(C)=C1C3(C)C)[C@]1(OC(C)=O)CO[C@@H]1C[C@@H]2O [paclitaxel]
concentration of drug in pH-sensitive peptide nanoparticle preparation [2]: 1 mg/ml
solubility in water [3]: about 0.3 μg/ml

Ac-GHFFHGHFFH-NH2
solubility of peptide ([4]; pH 6.5): soluble
solubility of peptide ([4]; pH 7.4): soluble
